Assay results: ChEMBL document CHEMBL4819044, “Discovery of a Hydroxypyridinone APJ Receptor Agonist as a Clinical Candidate” (J Med Chem, 2021); call rule not given here
Converted amounts (≈) assume the structure as drawn.

What was measured:
[1] = Metabolic stability in human liver microsomes assessed as parent compound remaining incubated for 10 mins in presence of NADPH by triple quadrupole mass spectrometry; format: ADME, Microsome; settings: read-out: Stabilty
Apelin receptor [2] = target: T1, Apelin receptor (Rattus norvegicus, UniProt Q9JHG3); assay: Agonist activity at rat APJ receptor expressed in human HEK293 cells assessed as inhibition of forskolin-induced cAMP accumulation incubated for 1 hr by TR-FRET assay; format: functional, cell-based
T1 sequence (Q9JHG3 whole entry): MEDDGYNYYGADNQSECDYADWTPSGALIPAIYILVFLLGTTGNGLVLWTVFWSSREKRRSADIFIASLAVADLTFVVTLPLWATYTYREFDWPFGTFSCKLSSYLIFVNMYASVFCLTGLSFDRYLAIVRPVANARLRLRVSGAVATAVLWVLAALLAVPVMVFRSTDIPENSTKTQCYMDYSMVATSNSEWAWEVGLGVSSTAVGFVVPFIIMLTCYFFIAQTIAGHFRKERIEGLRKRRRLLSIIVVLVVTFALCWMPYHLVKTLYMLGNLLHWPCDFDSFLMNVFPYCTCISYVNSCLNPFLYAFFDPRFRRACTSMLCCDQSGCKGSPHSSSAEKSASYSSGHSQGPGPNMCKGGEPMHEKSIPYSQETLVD

Apelin receptor [3] = target: T2, Apelin receptor (Homo sapiens, UniProt P35414); assay: Agonist activity at human APJ receptor expressed in human HEK293 cells assessed as inhibition of forskolin-induced cAMP accumulation incubated for 1 hr by TR-FRET assay; format: functional, cell-based
T2 sequence (P35414 whole entry): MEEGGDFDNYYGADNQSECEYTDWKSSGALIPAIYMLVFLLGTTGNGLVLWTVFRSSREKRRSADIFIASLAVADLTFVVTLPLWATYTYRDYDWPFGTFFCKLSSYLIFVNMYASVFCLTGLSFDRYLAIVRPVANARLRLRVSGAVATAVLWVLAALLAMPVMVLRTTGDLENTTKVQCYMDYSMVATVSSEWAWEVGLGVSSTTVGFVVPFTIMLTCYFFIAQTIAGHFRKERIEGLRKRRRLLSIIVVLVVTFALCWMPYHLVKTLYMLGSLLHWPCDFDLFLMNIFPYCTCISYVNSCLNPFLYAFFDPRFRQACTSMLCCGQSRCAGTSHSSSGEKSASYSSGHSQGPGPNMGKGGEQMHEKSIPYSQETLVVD

[4] = Metabolic stability in rat liver microsomes assessed as parent compound remaining incubated for 10 mins in presence of NADPH by triple quadrupole mass spectrometry; format: ADME, Microsome; settings: read-out: Stabilty
[5] = Solubility of compound in phosphate buffer pH 7.4 using excess solid incubated for 24 hrs under agitation condition by reverse phase LC analysis; format: physicochemical
in vivo [6] = settings: cynomolgus monkey, po, 3 mg/kg
Description: AUC (0 to infinity) in cynomolgus monkey at 3 mg/kg, po measured measured up to 72 hrs by LC/MS/MS analysis

[7] = Stability in human liver microsomes assessed as parent compound remaining at 30 uM incubated for 45 mins; format: ADME, Microsome; settings: read-out: Stabilty
in vivo [8] = settings: Sprague-Dawley, rat, po, 3 mg/kg
Description: Cmax in Sprague-Dawley rat at 3 mg/kg, po measured up to 48 hrs by LC/MS/MS analysis

in vivo [9] = settings: Sprague-Dawley, rat, po, 3 mg/kg; remark: listed apart in the source
Description: AUC (0 to infinity) in Sprague-Dawley rat at 3 mg/kg, po measured up to 48 hrs by LC/MS/MS analysis

cells [10] = settings: Canis lupus familiaris, HEK293, 1 h
[11] = Half life in cynomolgus monkey at 3 mg/kg, po measured measured up to 72 hrs by LC/MS/MS analysis; settings: in vivo
Rattus norvegicus [12] = assay: Hemodynamic activity in Sprague-Dawley rat model of acute pressure-volume loop assessed as peripheral vasodilation by measuring free plasma drug concentration at 10 ug/kg/min administered as iv infusion measured at 5 mins; format: functional; settings: dose 10 µg/kg/min
in vivo [13] = settings: cynomolgus monkey, po, 3 mg/kg; remark: listed apart in the source
Description: Cmax in cynomolgus monkey at 3 mg/kg, po measured measured up to 48 hrs by LC/MS/MS analysis

[14] = Glutathione reactivity of the compound assessed as GSH-adduct formation; format: physicochemical
[15] = Stability in rat liver microsomes assessed as parent compound remaining at 30 uM incubated for 45 mins; format: ADME, Microsome; settings: read-out: Stabilty
[16] = Oral bioavailability in Sprague-Dawley rat at 3 mg/kg measured measured up to 48 hrs by LC/MS/MS analysis; format: ADME, organism-based; settings: in vivo
[17] = Half life in Sprague-Dawley rat at 3 mg/kg, po measured up to 48 hrs by LC/MS/MS analysis; settings: in vivo
[18] = Urinary excretion in cynomolgus monkey at 3 mg/kg, po measured measured up to 72 hrs by LC/MS/MS analysis; settings: in vivo
[19] = Renal clearance in Sprague-Dawley rat at 3 mg/kg, po measured up to 48 hrs by LC/MS/MS analysis; format: ADME, organism-based; settings: in vivo
Apelin receptor [20] = target: T2, Apelin receptor; assay: Displacement of [3H]Apelin-13 from human APJ receptor stably expressed in human HEK293 cell membrane incubated for 120 mins by TopCount scintillation plate reader analysis; format: cell membranes
Rattus norvegicus [21] = assay: Hemodynamic activity in Sprague-Dawley rat model of acute pressure-volume loop assessed as increase in cardiac output at 10 ug/kg/min administered as iv infusion measured at 5 mins relative to control; format: functional; settings: dose 10 µg/kg/min
[22] = Oral bioavailability in cynomolgus monkey at 3 mg/kg measured measured up to 72 hrs by LC/MS/MS analysis; format: ADME, organism-based, Macaca fascicularis; settings: in vivo
cells [23] = settings: Macaca mulatta, HEK293, 1 h
[24] = Stability in monkey liver microsomes assessed as parent compound remaining at 30 uM incubated for 45 mins; format: ADME, Macaca mulatta, Microsome; settings: rhesus monkey, read-out: Stabilty

| Compound | remaining at 10 min [1] | EC50 (Apelin receptor [2]) | EC50 (Apelin receptor [3]) | remaining at 10 min [4] | solubility thermodynamic at 24 h [5] | further results |
| --- | --- | --- | --- | --- | --- | --- |
| CCCCc1nc(O)c(-c2nnc(Cc3cccc(Cl)c3)o2)c(O)c1-c1c(OC)cccc1OC | 88% | 7.3 nM | 2.6 nM | 38% |  |  |
| CCCCc1[nH]c(=O)c(C(=O)OCC)c(O)c1-c1c(OC)cccc1OC | 89% | 980 nM |  | 24% |  |  |
| CCCCc1[nH]c(=O)c(-c2nc(Cc3ccccc3)no2)c(O)c1-c1c(OC)cccc1OC | 69% | 120 nM |  | 54% |  |  |
| CCCCc1[nH]c(=O)c(-c2nnc(-c3ccc(Cl)cc3)o2)c(O)c1-c1c(OC)cccc1OC | 99% | 450 nM |  | 36% |  |  |
| COc1cccc(OC)c1-c1c(C2CC2)[nH]c(=O)c(-c2nnc(Cc3ccc(Cl)cc3)o2)c1O | 88% | 15 nM | 11 nM | 51% | 12 µg/mL (≈ 25 µM) |  |
| COc1cccc(OC)c1-c1c(C2CCCC2)[nH]c(=O)c(-c2nnc(Cc3ccc(Cl)cc3)o2)c1O | 80% | 0.51 nM | 0.24 nM | 66% | 4 µg/mL (≈ 7.87 µM) |  |
| CCCCc1[nH]c(=O)c(-c2n[nH]c(Cc3ccccc3)n2)c(O)c1-c1c(OC)cccc1OC | 36% | 430 nM |  | 15% |  |  |
| CCOCc1nc(O)c(-c2nnc(Cc3ccc(Cl)cn3)o2)c(O)c1-c1c(OC)cccc1OC [BMS-986224] | 91% | 0.024 nM | 0.023 nM | 92% | 220 µg/mL (≈ 441 µM) | AUC(0-inf) at 72 h (in vivo [6]): 15.3 µM·h; remaining at 0.75 h, 30 µM [7]: > 95%; Cmax at 48 h (in vivo [8]): 5.6 µM; AUC(0-inf) at 48 h (in vivo [9]): 34 µM·h; EC50 (cells [10]): 0.03 nM; half-life at 72 h [11]: 3.6 h; Cp(f) (Rattus norvegicus [12]): 18 nM; Cmax at 48 h (in vivo [13]): 1.5 µM; Drug metabolism [14]: Not Active; remaining at 0.75 h, 30 µM [15]: > 95%; bioavailability [16]: 77%; half-life at 48 h [17]: 2.5 h; dose excreted in urine [18]: 12%; dose excreted at 48 h [19]: 4%; Ki (Apelin receptor [20]): 0.074 nM; Activity (Rattus norvegicus [21]): 12%; bioavailability [22]: 56%; EC50 (cells [23]): 0.08 nM; remaining at 0.75 h, 30 µM [24]: > 95% |
| CCOCc1[nH]c(=O)c(-c2nnc(Cc3ccc(Cl)nc3)o2)c(O)c1-c1c(OC)cccc1OC | 96% | 0.58 nM | 0.17 nM | 76% | 110 µg/mL (≈ 220 µM) |  |
| CCCCc1nc(O)c(-c2nnc(Cc3ccc(Cl)cc3)o2)c(O)c1-c1c(OC)cccc1OC | 66% | 1.2 nM | 0.4 nM | 22% | < 1 µg/mL |  |
| COCCc1[nH]c(=O)c(-c2nnc(Cc3ccc(Cl)cc3)o2)c(O)c1-c1c(OC)cccc1OC | 86% | 1.4 nM |  | 73% | 73 µg/mL (≈ 147 µM) |  |
| CCCCc1nc(O)c(-c2nnc(Cc3ccccc3Cl)o2)c(O)c1-c1c(OC)cccc1OC | 82% | 18 nM | 8.6 nM | 24% |  |  |
| CCOCc1nc(O)c(-c2nnc(Cc3ccc(Cl)cc3)o2)c(O)c1-c1c(OC)cccc1OC | 94% | 0.23 nM | 0.12 nM | 74% | 26 µg/mL (≈ 52.2 µM) |  |
| CCCCc1[nH]c(=O)c(-c2nnc(Cc3ccccc3)o2)c(O)c1-c1c(OC)cccc1OC | 87% | 31 nM |  | 53% |  |  |
